In US20060216775A1, “Compositions and methods for analysis and manipulation of enzymes in biosynthetic proteomes” (priority 2003, published 2006):

Target: T1, VibB (UniProt P0C6D3+P39135)
T1 construct: made in house; host or cells: E. coli BL21 (DE3), crude lysate
Type: biochemical, Vibrio cholera
Settings: cell lysate of E. coli BL21 producing VibB, recombinant Sfp, SDS-PAGE, UV irradiation
Source text: To investigate PPTase transfer of non-thioester CoA derivatives, Sfp was used for post-translational modification of known, heterologously expressed CP domains (FIG. 11). As a first experiment, VibB was used. VibB is a small protein from the Vibrio cholera vibriobactin biosynthetic machinery that consists of a modular NRP synthase system. VibB contains only one carrier protein domain and as such is a perfect model system due to its small size and facile expression in E. coli. Cell lysate was collected from induced E. coli BL21 cells producing VibB from a pET24 expression vector. An aliquot of this lysate was incubated with CoA-BODIPY derivative and recombinant Sfp and analyzed by SDS-PAGE. […] Coomassie staining of the gel confirmed the band to be fluorescently-tagged VibB (32.6 kD) (FIG. 11C). […]
One Liter of E. Coli BL21 (DE3) cells induced to express recombinant VibB, FrenACP, OtcACP, and TcmACP, each in pET22b vectors (Novagen, Madison, Wis.), were pelleted, resuspended, and lysed by sonication in 30 mL 0.1 M Tris-Cl pH 8.0 with 1% glycerol in the presence of 500 μL of a 10 mM protease inhibitor cocktail containing bestatin, pepstatin A, E-64, and phosphoramidon (Sigma-Aldrich) and sonicated by pulsing for 5 minutes on ice. […] Protein concentration was determined using the Bradford method with bovine serum albumin (Sigma-Aldrich) as a standard.

T1 sequence (P39135 whole entry): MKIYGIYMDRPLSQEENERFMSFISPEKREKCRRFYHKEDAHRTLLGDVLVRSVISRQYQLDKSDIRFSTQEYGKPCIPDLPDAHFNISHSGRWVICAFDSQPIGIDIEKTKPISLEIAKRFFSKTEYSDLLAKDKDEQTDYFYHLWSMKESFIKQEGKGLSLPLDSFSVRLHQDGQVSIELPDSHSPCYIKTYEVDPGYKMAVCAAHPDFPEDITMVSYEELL
T1 sequence (P0C6D3 whole entry): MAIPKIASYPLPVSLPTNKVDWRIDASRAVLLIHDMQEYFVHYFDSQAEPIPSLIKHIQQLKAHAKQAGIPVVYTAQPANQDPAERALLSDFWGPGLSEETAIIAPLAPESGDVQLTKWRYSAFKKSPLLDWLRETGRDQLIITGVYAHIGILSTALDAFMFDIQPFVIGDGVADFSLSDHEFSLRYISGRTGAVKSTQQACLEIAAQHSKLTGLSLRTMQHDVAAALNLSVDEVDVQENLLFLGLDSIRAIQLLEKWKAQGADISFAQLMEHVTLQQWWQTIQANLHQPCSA

**Q.** O=C(O)c1cc(N2C(=O)C=CC2=O)ccc1-c1c2cc(F)c(=O)cc-2oc2cc(O)c(F)cc12 [1b, Oregon Green® 488 maleimide] was tested. Which “fluorescent labeling of VibB” value did it give?
**A.** Its value is “Comparable labeling”.
